Measurements: patent publication US20200375958A1, “MEMBRANE ACTIVE MOLECULES” (priority 2017, published 2020)
Where “and” joins values, the source holds several entries; their conditions need not be identical. Equal values may be shown once. Read-outs that look alike come from different tables or passages of the source.

Key:
CF-1 mice = test: Anticonvulsant test in mice: metrazol (pentylenetetrazol) tail vein infusion, time to twitch and seizure; type: in vivo, mouse
Description: CF-1 mice were used in this study. Number 20 PE tubing to cannulate a mouse tail vein was used. An infusion pump was used to deliver a solution at a rate of 0.34 mL/min. A hemostat was used to prevent backflow in the PE tubing before the experiment stated. To begin the experiment, the hemostat that was clamped to the PE 20 tubing was removed, the infusion of the solution was started into the tail IV of the mouse, and the timer was started.
The study reflects the time in seconds from the start of the infusion to the time of twitch and onset of seizure, or 90 seconds, whichever is sooner. When the seizure occurs, the infusion is turned off.
As a control, metrazol (pentylenetetrazol) in a 0.5% solution (5 mg/mL) in water was prepared. Pentylenetetrazol is used as a control to study seizure phenomena in and to identify compounds that may control seizure susceptibility. Solutions of 8 M butyric acid and 1.5 M 3-hydroxybutyric acid were made.
The time to twitch and time to seizure of the mouse in seconds is recorded in Tables 3-5, below.

mouse = tested on: mouse
Description: Butyric acid was dissolved in water to form an 8 M solution. 0.5 mL of the 8 M solution of butyric acid was injected subcutaneously (at the back of the neck) into the mouse.
3-hydroxybutyric acid was dissolved in water to form 1 M, 1.5 M, and 2 M solutions. 0.2 mL of a 1.5 M solution of 3-hydroxybutyric acid was injected into a tail vein of a CD-1 mouse. […] This was repeated for at least 2 more times on subsequent days.
Ethylmalonic acid was dissolved in water to form 2 M, 3 M, and 4 M solutions. 0.2 mL of a 3 M solution of ethylmalonic acid was injected into a tail vein of a mouse. […] This was repeated for at least 2 more times on subsequent days.
Ethylmalonic acid was dissolved in water to form a 4 M solution. 0.5 mL of the 4 M solution of ethylmalonic acid was injected subcutaneously into the mouse.

Tadpoles = test: Tadpole anesthesia test (movement suppressed on contact with rod); type: in vivo; settings: read-out: Movement suppressed (%)
Description: Tadpoles were placed in a petri dish containing aquarium water. Four to eight tadpoles were placed in each petri dish. The aquarium water contained the specified test compound at the listed concentration. When the tadpoles stopped moving, a plastic rod was used to elicit motion once again by contact between the rod and tadpole. […] From this and the number of subjects, the percent of tadpoles in which movement was suppressed were calculated.
After 1 to 30 minutes, they were again contacted with a rod to ensure the anesthetic effect had worn off.
In some examples, subanesthetic concentrations of ethanol were added into the aquarium water. Tadpoles in which movement was prevented with exposure to a test compound and ethanol but not with exposure to a test compound alone were classified as partial anesthetics.

[1] = average of 8 mice, 1.5 M 3-hydroxybutyric acid solution plus metrazol
[2] = individual mice, 1.5 M 3-hydroxybutyric acid solution plus metrazol
[3] = average of 13 mice, 8 M butyric acid solution plus metrazol
[4] = individual mice, 8 M butyric acid solution plus metrazol
[5] = 0.5 mL of 8 M solution in water, subcutaneous (back of the neck)
[6] = average of 9 mice, metrazol alone
[7] = individual mice, metrazol 0.5% solution infused 0.34 mL/min tail vein

Compound: CC(O)CC(=O)O (centres unmarked) [3-hydroxybutyric acid]
- 3-Hydroxybutyric Acid and Metrazol Time to Seizures (seconds), Avg. (CF-1 mice; [1]): 56.9 s
- 3-Hydroxybutyric Acid and Metrazol Time to Twitch (seconds), Avg. (CF-1 mice; [1]): 47.5 s
- 3-Hydroxybutyric Acid and Metrazol Time to Seizures (CF-1 mice; [2]): 61 seconds and 74 seconds and 53 seconds (3×) and 48 seconds (2×) and 65 seconds
- 3-Hydroxybutyric Acid and Metrazol Time to Twitch (CF-1 mice; [2]): 56 s and 54 s and 49 s and 47 s and 38 s and 50 s and 45 s and 41 s
- Anesthetic effect on the mouse (mouse; 0.2 mL of 1.5 M solution in water, tail vein, CD-1 mouse): became unconscious or anesthetic
- Anesthetic effect on the mouse (mouse; 1 M solution in water, tail vein, CD-1 mouse): did not have any observable effect
- Lethality to the mouse (mouse; 2 M solution in water, tail vein, CD-1 mouse): lethal

Compound: CCCC(=O)O [Butyric acid]
- Butyric Acid and Metrazol Time to Seizures (seconds), Avg. (CF-1 mice; [3]): 51.2 s
- Butyric Acid and Metrazol Time to Twitch (seconds), Avg. (CF-1 mice; [3]): 41.4 s
- Butyric Acid and Metrazol Time to Seizures (CF-1 mice; [4]): 51 seconds and 50 seconds (2×) and 47 seconds and 57 seconds (3×) and 42 seconds and 66 seconds and 41 seconds and 44 seconds and 38 seconds and 65 seconds
- Butyric Acid and Metrazol Time to Twitch (CF-1 mice; [4]): 38 seconds and 42 seconds and 44 seconds and 50 seconds and 34 seconds (2×) and 53 seconds (2×) and 48 seconds and 36 seconds (2×) and 35 seconds (2×)
- responders at 62500 µM (Tadpoles): 100%
- responders at 125000 µM (Tadpoles): 100%
- responders at 250000 µM (Tadpoles): 100%
- responders at 500000 µM (Tadpoles): 100%
- Lethality to the mouse (mouse; 0.2 mL of 8 M solution in water, intravenous, tail vein): lethal
- Anesthetic effect on the mouse (mouse; [5]): became anesthetized or lost consciousness
- Time until mouse became anesthetized or lost consciousness (mouse; [5]): 10 to 15 min
- Time until mouse woke up (mouse; [5]): several hours

Compound: C1CCc2nnnn2CC1 [Metrazol, pentylenetetrazol, reference compound]
- Metrazol alone Time to Seizures (seconds), Avg. (CF-1 mice; [6]): 45.7 s
- Metrazol alone Time to Twitch (seconds), Avg. (CF-1 mice; [6]): 37.3 s
- Metrazol alone Time to Seizures (CF-1 mice; [7]): 43 seconds (2×) and 42 seconds (2×) and 59 seconds and 45 seconds and 39 seconds and 49 seconds (2×)
- Metrazol alone Time to Twitch (CF-1 mice; [7]): 33 seconds and 36 seconds (2×) and 37 seconds and 52 seconds and 34 seconds (2×) and 31 seconds and 43 seconds
